The record followed here is BindingDB's records for doi:10.1021/bi00098a028 (Arizona State University, 1991).

The structures appear in SMILES notation.

The target in the test is T1, Purine nucleoside phosphorylase (Homo sapiens, UniProt P00491).
T1 sequence (P00491 whole entry): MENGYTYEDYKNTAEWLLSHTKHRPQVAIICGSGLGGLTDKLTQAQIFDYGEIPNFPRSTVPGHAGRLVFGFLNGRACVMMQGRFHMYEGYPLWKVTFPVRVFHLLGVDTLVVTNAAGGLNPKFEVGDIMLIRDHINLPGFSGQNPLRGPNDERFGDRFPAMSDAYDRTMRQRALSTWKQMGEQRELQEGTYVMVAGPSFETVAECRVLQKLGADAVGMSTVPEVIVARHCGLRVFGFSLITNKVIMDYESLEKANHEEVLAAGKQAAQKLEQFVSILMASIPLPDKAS
Kind of test: Competitive Inhibition Assay. The text has this:
PNPase activity (guanosine to guanine and ribose 1-phosphate) was followed by measuring the decrease in absorbance at 268nm.
Turning to `O=c1[nH]cnc2c(O)ccc(O)c12` [Substituted Quinazolin-4(3H)-one, 11], the Ki is 142 µM.

Consider `Cc1cc(O)c2nc[nH]c(=O)c2c1` [Substituted Quinazolin-4(3H)-one, 12], for which the inhibition constant (Ki) came to 618 µM.

As for `O=c1[nH]cnc2cccc(O)c12` [Substituted Quinazolin-4(3H)-one, 13], the Ki was 576 µM.

For the compound `O=c1[nH]cnc2c(O)cccc12` [Substituted Quinazolin-4(3H)-one, 14], the affinity, expressed as Ki, was 593 µM.

In turn, `Nc1ccc(O)c2c(=O)[nH]cnc12` [Substituted Quinazolin-4(3H)-one, 15] showed a Ki of 131 µM.

In the case of `Nc1cccc2nc[nH]c(=O)c12` [Substituted Quinazolin-4(3H)-one, 9], the Ki came to 337 µM.
